Results published in US7807368B2, “Cyclin-dependent kinase inhibitors as targets for opiod growth factor treatment” (priority 2006, dated 2010).
“Also recorded” adds a separate entry of the source.

Legend:
p16 = test: Western blot of p16 in SCC-4 cells; format: cell-based, human; details: SCC-4 cells, 3 h
Protocol: The SCC-1 (UM-SCC-1) cell line was obtained from the University of Michigan Cancer Research Laboratory, and CAL-27 and SCC-4 cells were obtained from the American Type Culture Collection (Manassas, Va.). SCC-1 and CAL-27 cells were cultured in DMEM media, whereas SCC-4 cells were grown in 1:1 Hams F-12 DMEM media. All media was supplemented with 10% fetal bovine serum (HyClone, Logan, Utah), 1.2% sodium bicarbonate, and 5000 units/ml penicillin, 5 μg/ml streptomycin and 10 μg/ml neomycin. OGF was purchased from Sigma-Aldrich (St. Louis, Mo.), dissolved in sterile water, and used at a final concentration of 10^−6 M.
Synchronized cells (˜2×10^6) from each treatment were solubilized in 200 μl RIPA buffer (1×PBS, 10 μM IGEPAL, 1 mg/ml SDS, 5 mg/ml deoxycholic acid), containing protease and phosphatase inhibitors (2 μg/ml aprotinin, 3 mg/ml phenylmethyl sulfonyl fluoride (PMSF), 1 mM sodium orthovanidate, 1 μM okadaic acid). Total protein concentrations were measured using the DC protein assay kit (Bio-Rad Laboratories, Hercules, Calif.). Equal amounts of protein (40 μg) were subjected to 10% SDS-PAGE followed by transfer of proteins onto polyvinylidene difluoride (Millipore, Billerica, Mass.) using standard protocols. […]

BxPC-3 cells [1] = test: Growth of BxPC-3 cells transfected with p21 siRNA or negative control siRNA; format: cell-based, human; details: for reduction in growth: negative control siRNA-transfected BxPC-3 cells
Protocol: (§1) The p21-targeted siRNAs were obtained from Santa Cruz Biotechnology, and negative control siRNAs were purchased from Ambion (Ambion, Inc., Austin, Tex.). For transfection, 2×10^5 cells per well were seeded in 6-well plates containing 1 ml of media without antibiotics. For each well, 1 μl of siRNA stock (20 μM) was mixed with 175 μl of serum-free media. Two μl of Oligofectamine reagent (Invitrogen, Carlsbad, Calif.) was added to prewashed cells in each well, making the final concentration for siRNA approximately 20 nM. Cells were incubated for 4 hours at 37° C. prior to the addition of OGF. Eighteen hours later, 1 ml fresh complete media with or without OGF was added to the cultures; media and OGF were replaced daily. At the indicated time points, cells were collected for growth curves or Western blotting.

p16/Cdk4 complex = test: Cdk4 immunoprecipitation, p16/Cdk4 and cyclin D1/Cdk4 complexes in SCC-1 cells; format: cell-based, human
Protocol: Cell extracts were subjected to immunoprecipitation using antibodies against Cdk4 and protein A beads (Santa Cruz). Immunoprecipitates were separated on a 15% SDS-PAGE gel, and membrane blots probed with p16 antibodies (1:200), and developed using a chemiluminescence Western blotting detection system. Blots were re-probed with Cdk4 antibody (1:200). Five independent experiments were performed.

[2] = test system: human umbilical vein endothelial cells (HUVEC); test: Growth of HUVEC; format: cell-based
Source text: Another normal cell line, human umbilical vein endothelial cells (HUVEC) has been subjected to OGF exposure. […] At 96 hr, OGF-treated cultures had 45.9% fewer cells than normal cultures.

BxPC-3 cells [3] = test: Flow cytometry cell cycle distribution, synchronized BxPC-3 cells; format: cell-based, human; details: 10^-6 M OGF, 21 hours
Protocol: For flow cytometry, cells were synchronized with 67 ng/ml nocodazole (Sigma-Aldrich) for 24 hours, followed by three washes with complete media. Cells were released from growth arrest by addition of complete media or OGF supplemented complete media. Synchronized cells were treated with 10^-6 M OGF for 21 hours, harvested with 0.25% trypsin-EDTA (Mediatech, Herndon, Va.) and fixed with 70% ethanol at −20° C. for up to 7 days before DNA analysis.
DNA content was obtained by incubating cells in PBS containing propidium iodide (0.1 mg/ml) and RNase A (0.02 mg/ml) for 15 minutes at 220 C. Fluorescence was measured and analyzed using a BD Biosciences FACScan flow cytometer (San Diego, Calif.) and Modfit Software (Topsham, Me.).

Capan-2 cells = test: Growth curves of Capan-2 cells transfected with p21 siRNA or negative control siRNA; format: cell-based, human
Protocol: Human pancreatic cancer cell lines BxPC-3, PANC-1, and Capan-2 were obtained from the American Type Culture Collection (Manassas, Va.), and cultured in RPMI, Dulbecco's Modified Medium, or McCoy's 5A medium, respectively. All media were supplemented with 10% fetal bovine serum, 1.2% sodium bicarbonate, and 0.25% antibiotics (5000 units/ml penicillin, 5 μg/ml streptomycin and 10 μg/ml neomycin). OGF was purchased from Sigma-Aldrich (St. Louis, Mo.), dissolved in sterile water, and used at a final concentration of 10^−6 M.
as §1

[Met^5]-enkephalin [OGF] was tested, and the “p16 expression relative to synchronized control cells” value (p16) was “induced p16 expression”, the “effect on cell growth of cells transfected with p21 siRNA” value (BxPC-3 cells [1]; BxPC-3 cells, 10^-6 M OGF) was “no effect” and the “Cell numbers vs transfected cells receiving sterile water” value (BxPC-3 cells [1]; BxPC-3 cultures transfected with negative control siRNA, 10^-6 M OGF (FIG. 8)) was “significantly reduced”. For the same substance, the reduction in growth (BxPC-3 cells [1]; 10^-6 M OGF, 48 hours) was 17.8%, the reduction in growth (BxPC-3 cells [1]; 10^-6 M OGF, 72 hours) was 28.6% and the reduction in growth (BxPC-3 cells [1]; 10^-6 M OGF, 96 hours) was 35.8%. The reduction in growth (BxPC-3 cells [1]; 10^-6 M OGF, 120 hours) was 33.0%, the “level of the p16/Cdk4 complex” value (p16/Cdk4 complex; 3, 6, 9, and 12 h, significant (p<0.05) at 9 and 12 h) was “elevated at all time points; also recorded: increased at all time points” and the “level of the cyclin D1/Cdk4 complex” value (p16/Cdk4 complex; after treatment with OGF) was “no change”. For the same substance, the “cell number relative to control cultures” value ([2]; 10^-6 M OGF, 48, 72, and 96 hr) was “significant (p<0.01) reductions”, the “fewer cells than normal cultures” value ([2]; 10^-6 M OGF, 96 hr) was 45.9% and the “cells in S phase” value (BxPC-3 cells [3]) was 28.0%. The “cells in the G2/M phase” value (BxPC-3 cells [3]) was 2.9%, the “percentage of cells in the G0/G1 phase” value (BxPC-3 cells [3]) was 69.1% and the effect on growth (Capan-2 cells; Capan-2 cells transfected with negative control siRNA, 48, 72, and 96 hours) was “did depress growth”. For the same substance, the “effect on growth of cells lacking p21” value (Capan-2 cells; Capan-2 cells transfected with p21 siRNA) was “no inhibitory action”.
